# Biological target: T1, Amine oxidase [flavin-containing] A (Homo sapiens, UniProt P21397)
# T1 sequence (P21397 whole entry): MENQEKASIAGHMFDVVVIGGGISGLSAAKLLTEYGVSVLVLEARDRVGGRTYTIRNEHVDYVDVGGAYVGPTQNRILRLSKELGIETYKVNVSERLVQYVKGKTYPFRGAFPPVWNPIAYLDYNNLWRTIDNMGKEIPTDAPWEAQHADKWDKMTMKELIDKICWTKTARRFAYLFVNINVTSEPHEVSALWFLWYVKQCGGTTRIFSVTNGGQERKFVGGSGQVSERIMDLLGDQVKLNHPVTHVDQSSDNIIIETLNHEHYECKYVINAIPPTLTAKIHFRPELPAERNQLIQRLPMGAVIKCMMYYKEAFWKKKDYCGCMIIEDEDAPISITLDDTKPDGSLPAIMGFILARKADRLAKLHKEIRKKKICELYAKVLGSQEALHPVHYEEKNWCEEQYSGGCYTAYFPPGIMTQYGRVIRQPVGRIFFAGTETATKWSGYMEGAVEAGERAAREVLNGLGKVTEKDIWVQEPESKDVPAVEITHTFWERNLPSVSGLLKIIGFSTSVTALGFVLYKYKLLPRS
# Test: Activity Assay: Inhibitory activity of compounds was evaluated by a homogeneous luminescent method, the MAO-Glo Assay (Promega), measuring the monoamine oxidase activity (MAOs) from recombinant source (microsomes from baculovirus infected insect cells, Sigma).
smiles,measurement,value
CS(=O)(=O)c1ccc(-c2ccc3cc(-n4ccnc4)ccc3n2)cc1,IC50,450 nM

# — ChEMBL document CHEMBL3638392, “6-1H-imidazo-quinazoline and quinolines derivatives, new MAO inhibitors and imidazoline receptor ligands” (2014)
